Data as given in paper PMC5065773 (Antiviral research, 2016).
Read-outs that look alike come from different tables or passages of the source.

Assays:
[1] = target: WNVpro; details: read-out: Ki of BPTI against WNVpro; ref Aleshin et al., 2007; cited from earlier work
[2] = target: DENV2pro; details: read-out: Ki of BPTI against DENV2pro; ref Mueller et al., 2007; cited from earlier work
[3] = target: DENV 3 Pro (Dengue virus type 3, UniProt P27915); assay: In vitro protease assay with fluorogenic substrate Bz-Nle-Lys-Arg-Arg-AMC; format: biochemical, dengue virus serotype 3 (DENV3); details: for Hill-slope DENV 3 Pro: Hill slope of IC50 curve
[4] = target: T1, DENV2 protease (Dengue virus type 2, UniProt P14340); assay: Tryptophan; format: binding, dengue virus serotype 2 (DENV2); details: for Competition with BPTI in fluorescence quenching: 50 μM compound and 10 μM BPTI; for Quenching of tryptophan fluorescence of DENV2 protease: 0.09-50 μM inhibitor, 2 μM protease
[5] = target: WNV protease (West Nile virus, UniProt Q9Q6P4); assay: In vitro protease assay with fluorogenic substrate Bz-Nle-Lys-Arg-Arg-AMC; format: biochemical; details: for Hill-slope WNV Pro: Hill slope of IC50 curve; for inhibition at 25 µM: read-out: Inhibition of WNVpro (%) At 25 μM
[6] = system: DENV2; assay: Viral RNA copy number by qRT-PCR in DENV2-infected BHK-21 cells; format: cell-based; details: 24 h
[7] = target: DENV 4 Pro (Dengue virus type 4, UniProt P09866); assay: In vitro protease assay with fluorogenic substrate Bz-Nle-Lys-Arg-Arg-AMC; format: biochemical, dengue virus serotype 4 (DENV4); details: for Hill-slope DENV 4 Pro: Hill slope of IC50 curve
[8] = target: DENV 1 Pro (Dengue virus type 1, UniProt P17763); assay: as above; format: biochemical, dengue virus serotype 1 (DENV1); details: for Hill-slope DENV 1 Pro: Hill slope of IC50 curve
[9] = system: BHK-21 cells; assay: Cytotoxicity to BHK-21 cells; format: cell-based; details: for CC50: ~24 h, CCK-8
[10] = target: T1, DENV2 protease; assay: Determination of Ki and kinetics of inhibition; format: biochemical, dengue virus serotype 2 (DENV2); details: for Mode of inhibition (Lineweaver-Burk plots): DENV2 protease
[11] = target: T1, DENV2 protease; assay: In vitro protease assay with fluorogenic substrate Bz-Nle-Lys-Arg-Arg-AMC; format: biochemical, dengue virus serotype 2 (DENV2); details: for Hill-Slope DENV 2 Pro: Hill slope of IC50 curve
[12] = system: DENV2 replicon; assay: Renilla luciferase reporter replicon assay in stable BHK-21/DENV2 replicon cells; format: cell-based

T1 sequence (P14340 1476-1653): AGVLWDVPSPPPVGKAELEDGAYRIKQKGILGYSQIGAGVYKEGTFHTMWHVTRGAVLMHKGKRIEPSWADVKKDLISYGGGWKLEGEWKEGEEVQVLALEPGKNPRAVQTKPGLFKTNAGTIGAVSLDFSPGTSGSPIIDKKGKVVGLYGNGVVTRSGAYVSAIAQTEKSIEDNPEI
Sequence of DENV 1 Pro (P17763 1394-1445, looked up, natural form): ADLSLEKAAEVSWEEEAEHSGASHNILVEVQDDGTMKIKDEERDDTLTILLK
Sequence of DENV 1 Pro (P17763 1476-1660): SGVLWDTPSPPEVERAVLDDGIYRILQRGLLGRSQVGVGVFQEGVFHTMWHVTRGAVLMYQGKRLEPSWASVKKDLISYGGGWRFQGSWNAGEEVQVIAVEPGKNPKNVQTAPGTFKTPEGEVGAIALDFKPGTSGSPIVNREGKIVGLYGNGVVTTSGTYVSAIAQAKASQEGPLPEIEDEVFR
Sequence of DENV 3 Pro (P27915 1474-1651): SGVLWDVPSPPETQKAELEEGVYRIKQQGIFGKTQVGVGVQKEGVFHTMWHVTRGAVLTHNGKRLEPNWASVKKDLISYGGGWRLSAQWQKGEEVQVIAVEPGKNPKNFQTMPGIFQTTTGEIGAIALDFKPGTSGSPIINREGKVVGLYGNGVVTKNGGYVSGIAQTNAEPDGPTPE
Sequence of WNV protease (Q9Q6P4 1428-1467): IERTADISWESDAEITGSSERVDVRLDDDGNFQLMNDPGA
Sequence of WNV protease (Q9Q6P4 1506-1683): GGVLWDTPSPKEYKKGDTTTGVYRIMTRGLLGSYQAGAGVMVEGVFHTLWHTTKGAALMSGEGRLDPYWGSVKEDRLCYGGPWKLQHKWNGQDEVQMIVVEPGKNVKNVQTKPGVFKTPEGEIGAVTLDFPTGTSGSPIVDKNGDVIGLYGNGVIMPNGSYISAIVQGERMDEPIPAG
Sequence of DENV 4 Pro (P09866 1475-1652): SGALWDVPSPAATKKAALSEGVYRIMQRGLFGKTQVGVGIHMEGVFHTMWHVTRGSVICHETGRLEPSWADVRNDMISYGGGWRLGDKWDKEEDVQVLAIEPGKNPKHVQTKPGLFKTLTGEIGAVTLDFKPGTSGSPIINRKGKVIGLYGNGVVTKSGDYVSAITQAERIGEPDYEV

Molecule | Hill-slope DENV 3 Pro [3] | Competition with BPTI in fluorescence quenching [4] | Quenching of tryptophan fluorescence of DENV2 protease [4] | Hill-slope WNV Pro [5] | Inhibition of DENV2 viral RNA (qRT-PCR) vs DMSO control ([6]; 2 μM compound) | Hill-slope DENV 4 Pro [7] | Hill-slope DENV 1 Pro [8] | CC50 [9] [nM] | Mode of inhibition (Lineweaver-Burk plots) [10] | Hill-Slope DENV 2 Pro [11] | IC50 [5] [nM] | inhibition at 25 µM [5] [%] | IC50 [7] [nM] | IC50 [8] [nM] | Ki [10] [nM] | IC50 [11] [nM] | further results
Bovine pancreatic trypsin inhibitor [BPTI] | – | – | – | – | – | – | – | – | – | – | – | – | – | – | – | – | Ki [1]: 24 nM; Ki [2]: 26 nM
Tannic acid [Compound G] | 1.53±0.06 | partially restore the fluorescence | quenched tryptophan fluorescence in a dose dependent manner | 0.88±0.05 | good inhibition | 0.79±0.03 | 1.79±0.09 | 68100 | competitive inhibition | 1.60±0.07 | – | – | – | – | – | – | Inhibition of WNVpro (%) At 10 μM ([5]; 10 μM compound): 98%; Inhibition of WNVpro (%) At 25 μM ([5]; 25 μM compound): 96%; IC50 ([5]; read-out: IC50 WNV Pro, mean of duplicate experiments ± SEM): 120 ± 10 nM; Ki ([10]; competitive inhibition model, 20 nM DENV2 protease): 340 ± 50 nM; Inhibition of DENV2pro (%) At 10 μM ([11]; 10 μM compound): 99%; Inhibition of DENV2pro (%) At 25 μM ([11]; 25 μM compound): 101%
Cc1ccc(C(=O)Nc2ccc(S(=O)(=O)O)c3cc(S(=O)(=O)O)cc(S(=O)(=O)O)c23)cc1NC(=O)c1cccc(NC(=O)Nc2cccc(C(=O)Nc3cc(C(=O)Nc4ccc(S(=O)(=O)O)c5cc(S(=O)(=O)O)cc(S(=O)(=O)O)c45)ccc3C)c2)c1 [Compound H, Suramin] | 1.05±0.04 | – | failed to quench the tryptophan fluorescence | 1.29±0.03 | – | 1.25±0.12 | 0.92±0.05 | – | – | 0.97±0.04 | 3240 ± 110 | 73 | 3730 ± 140 | 2760 ± 250 | 870 ± 140 | 2660 ± 190 | IC50 [3]: 3250 ± 180 nM; inhibition at 10 µM ([5]; read-out: Inhibition of WNVpro (%) At 10 μM): 58%; Inhibition of DENV2 viral RNA (qRT-PCR) vs DMSO control ([6]; 10 μM compound): good inhibition; Cytotoxicity at the highest concentration tested ([9]; ~ 100 μM, 24 h): did not exhibit any cytotoxicity; inhibition at 10 µM ([11]; read-out: Inhibition of DENV2pro (%) At 10 μM): 72%; inhibition at 25 µM ([11]; read-out: Inhibition of DENV2pro (%) At 25 μM): 85%
Cc1ccc(C(=O)c2cc(O)c(O)c([N+](=O)[O-])c2)cc1 [Compound F, Tolcapone] | 1.60±0.08 | did not compete with BPTI | quenched tryptophan fluorescence in a dose dependent manner | 1.58±0.05 | good inhibition | 1.45±0.05 | 1.26±0.10 | 29200 | competitive inhibition | 1.51±0.07 | 700 ± 40 | 95 | 640 ± 30 | 1150 ± 100 | 220 ± 30 | 980 ± 60 | EC50 ([12]; Dengue virus, DENV2, BHK-21, 24 h, read-out: EC50 (μM) DENV2 Replicon): 2.29 ± 0.3 µM; Inhibition of DENV2 replicon replication ([12]; screened at 5, 10 and 25 μM vs 1% DMSO control): inhibit DENV2 replication
